In assay [1] the target is 15-LO (UniProt P12530). The format is biochemical. Here is the method:
IC50's may be determined by standard methods. One particular method is a colorimetric assay in which the putative inhibitor is pre-incubated with the 15-LO enzyme for about 10 minutes followed by addition of linoleic acid substrate for an additional 10 minutes. The product, 13-HPODE, is quantitated by coupling the reduction of the hydroperoxylated lipid to the oxidation on N-benzoyl-leucomethylene blue in the presence of hemin at pH 5. The absorbance of the oxidized methylene blue is directly proportional to the amount of 13-HPODE formed by the 15-LO, and can be measured in the presence and absence of inhibitor.

Assay [2] concerns ovariectomized (Ovx) rats. Nature of the assay: Estrogen deficiency Rat OVX osteopenia assay, BMD. The format is in vivo. The method, then:
In order to determine the ability of inhibitors of 15-lipoxygenase to stimulate bone formation and bone accretion, [[[5-(5,6-difluoro-1H-indol-2-yl)-2-methoxyphenyl]amino]sulfonyl]-carbamic acid-isobutyl ester, Compound 6, was prepared as described in WO0196298 ) and tested in the standard estrogen deficiency Rat OVX osteopenia assay.
Three month old rats are ovariectomized (Ovx) and administered 1 mg/kg/day Compound 6 or 0.1 ug/kg/day 1,25-dihydroxy vitamin D3 (positive control, abbreviated Vit. D in Table) by oral gavage once a day starting at 2 weeks post-ovariectomy and continuing for 7 weeks. The dose was increased to 2 mg/kg/day and continued until 11 weeks. Control groups, both sham (rats that were not ovariectomized) and Ovx, received vehicle only. The bone mineral density of the spine and right hip was determined by using the High Resolution Software package on a QDR-4500 Bone Densitometer^□ (Hologic, Walthan, Mass.). The animals were scanned by placing them in a supine position such that the right femur was perpendicular to the main body and the tibia was perpendicular to the femur. […]

Assay [3] relates to human mesenchymal stem cells (hMSC). Briefly: Alkaline phosphatase activity in hMSC cultures induced to differentiate into osteoblasts. The format is cell-based. Conditions: for alkaline phosphatase activity: hMSC cultured 9 days with 5-LO inhibitors, relative to DMSO, FIG. 8; for normalized activity of alkaline phosphatase: hMSC, second experimental set, inhibitors added on Day 1 or Day 11, FIG. 6. The method, then:
(§1) In order to determine the ability of inhibitors of 15-lipoxygenase to stimulate bone formation and bone accretion, the ability of the 15-LO inhibitors to promote measures of differentiation of stem cells into bone forming cells (osteoblasts) was tested in vitro.
(§2) Four to eight independent replicate cultures were prepared at each dose level. At the end of the experiments, the cultured cells were harvested by scraping the wells into the appropriate medium for further analysis of either alkaline phosphatase (Sigma kit#104-LL), or cellular calcium (Sigma kit#587-M). Cultures harvested for alkaline phosphatase assessment were harvested by scraping the cells and resuspending into 250 μL Tris buffered 0.1% Triton X-100, and then assayed either fresh or following freeze-thaw. Separate cultures to be assayed for total calcium content were scraped and resuspended into 250 μL 0.5M HCL. Results of these assays were normalized to total cellular DNA, thereby normalizing for differences in cell proliferation. At the same times that cultures were harvested for alkaline phosphatase and calcium, separate replicate cultures were harvested by scraping the cells and resuspending them in 250 μL Hank's Balanced Salt Solution, and cellular number assessed by DNA (DNeasy Tissue Kit, Qiagen cat#69506).
[…] Three different sets of experiments were performed.
The plates were cultured for 14 days. The DNA-normalized activity of alkaline phosphatase is plotted in FIG. 5.
(§3) Inhibitors were added either on Day 1 or Day 11. […] The normalized activity of alkaline phosphatase and calcium content is plotted in FIGS. 6 and 7, respectively.
(§4) As a control for the specificity of 15-LO inhibition for the induction of osteoblast differentiation of stem cells in vitro, the third set of experiments studied eight replicates of standard lipoxygenase inhibitors recognized as more specific to the 5-LO enzyme, rather than the 15-LO enzyme. Zileuton (1,10, 50 uM, prepared at Roche as) Compound 5, AA-861 (1, 10, 50 uM, Sigma #A371 1) and Rev-5901 (15 uM, Sigma #R5523) were prepared fresh every 2-3 days and tested in the human osteoblast precursor cells.

For assay [4] the test system is unchanged. Nature of the assay: Total calcium content of hMSC cultures induced to differentiate into osteoblasts. The format is cell-based. Conditions: for culture calcium deposition (total calcium content): hMSC cultured 16 days with 5-LO inhibitors, relative to DMSO or 1,25-Vitamin D3, FIG. 9; for calcium content: hMSC, second experimental set, inhibitors added on Day 1 or Day 11, FIG. 7. Here is the method:
as §1, §2, §3, §4

Assay [5] relates to Lck-IL4 transgenic mice. Nature of the assay: Lck-IL4 transgenic mouse model of osteoporosis: whole body and femoral bone parameters. The format is in vivo. Conditions: Lck-IL4 mice fed Compound 2 150 mg/kg bid in food 84 days vs untreated Lck-IL4 controls. Here is the method: The ability of 15-lipoxygenase inhibitors to promote bone formation in vivo was assessed by measuring the ability of the inhibitors to improve bone parameters in a mouse model of osteoporosis. Constitutive expression of an Interleukin-4 transgene from the Lck gene promoter (Lck-IL4) in C57BL/6 mice results in a severe bone phenotype mimicking osteoporosis.
Mice were permitted access to one-half the daily food intake twice daily at approximately 12 h intervals and diet intake was monitored daily. Water was available ad libitum. The control groups received the same diet without Compound 2. All groups consumed food equally well over the course of the experiment. […]
Bone mineral measurements were determined by dual energy X-ray absorptiometry (DEXA). […]
The cross-sectional geometric parameters of the mid-diaphysis of the femora were determined using a portable x-ray microtomograph (Model 1074, Skyscan, Antwerp, Belgium). Scans were taken at […] intervals, and a slice located at the midpoint of the femur was analyzed for total area (FCSA), cortical area (Ct Ar) and medullary canal area (Ma Ar). In addition, using the pixels contained in the cortical region of the digital image, the radius from the centroid of the cross-section to the outer fiber in the anterior-posterior plane, the areal moment of inertia (Ixx) in the plane of bending and the average cortical thickness (Ct Th) were calculated. […]

The mark [6] stands for this setting: 3 weeks treatment, 1 mg/kg/day oral gavage.
Setting [7] is: 7 weeks treatment, 1 mg/kg/day oral gavage.
Setting [8] is: 11 weeks treatment, dose increased to 2 mg/kg/day after 7 weeks, oral gavage.
[9] abbreviates: 7 weeks treatment, 0.1 ug/kg/day oral gavage (positive control).

“Also recorded” adds a separate entry of the source.

Sequence of 15-LO (P12530 whole entry): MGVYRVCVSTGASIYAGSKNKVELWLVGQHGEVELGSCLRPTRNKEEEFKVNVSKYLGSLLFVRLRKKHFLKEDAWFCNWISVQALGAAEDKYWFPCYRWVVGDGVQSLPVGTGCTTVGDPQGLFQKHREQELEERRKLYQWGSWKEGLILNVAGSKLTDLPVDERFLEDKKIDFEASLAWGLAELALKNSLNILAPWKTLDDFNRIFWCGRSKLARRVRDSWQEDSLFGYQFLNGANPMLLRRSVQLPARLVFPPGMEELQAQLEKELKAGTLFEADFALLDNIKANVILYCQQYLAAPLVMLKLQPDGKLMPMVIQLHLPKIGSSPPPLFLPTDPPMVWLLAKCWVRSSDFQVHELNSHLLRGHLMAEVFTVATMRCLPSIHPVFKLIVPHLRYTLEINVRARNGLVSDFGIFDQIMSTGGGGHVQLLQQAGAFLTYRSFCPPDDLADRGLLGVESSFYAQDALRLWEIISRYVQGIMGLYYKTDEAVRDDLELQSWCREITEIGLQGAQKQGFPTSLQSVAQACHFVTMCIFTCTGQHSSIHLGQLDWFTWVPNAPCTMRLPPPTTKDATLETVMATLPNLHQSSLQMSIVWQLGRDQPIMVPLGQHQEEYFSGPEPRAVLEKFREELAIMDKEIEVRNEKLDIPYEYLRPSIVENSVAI

In assay [1], `COc1ccc(-c2cc3cc(F)c(F)cc3[nH]2)cc1NS(=O)(=O)NC(=O)OCC(C)C` [Compound 6, [[[5-(5,6-difluoro-1H-indol-2-yl)-2-methoxyphenyl]amino]sulfonyl]-carbamic acid-isobutyl ester] returned an IC50 of 25 to 83 nM. Also, in assay [2] (setting [6]), the “BMD Lumbar Spine L2-L4” value is listed as 0.2347 (0.055) gm mineral/cm^2, the “BMD Lumbar Spine L5” value is listed as 0.2480 gm mineral/cm^2 and the “BMD Proximal Femur” value is reported as 0.2838 (0.103) gm mineral/cm^2. For the same compound, in assay [2] (setting [7]), the “BMD Lumbar Spine L2-L4” value is on record as 0.2474 (0.019) gm mineral/cm^2, the “BMD Lumbar Spine L5” value amounted to 0.2549 gm mineral/cm^2 and the “BMD Proximal Femur” value is 0.2932 (0.033) gm mineral/cm^2. In assay [2] (setting [8]), the “BMD Lumbar Spine L2-L4” value was 0.2507 (0.009) gm mineral/cm^2, the “BMD Lumbar Spine L5” value stood at 0.2626 gm mineral/cm^2 and the “BMD Proximal Femur” value is reported as 0.2986 (0.039) gm mineral/cm^2. In assay [2] (at >3 weeks, result in words), the “BMD in the spine” value is listed as “increased BMD”. The “BMD in the proximal femur” value in assay [2] (at >7 weeks, result in words) was “increased BMD”.

Regarding `CC(c1cc2ccccc2s1)N(O)C(N)=O` (stereo not drawn) [Compound 5, Zilueton], the “IC50 for 15-LO” value in assay [1] (result in words) is listed as “negative control”. Moreover, the alkaline phosphatase activity entry in assay [3] (listed as Zileuton) was “lack ability to induce; also recorded: lack of a response”. In addition, in assay [4] (listed as Zileuton), the “culture calcium deposition (total calcium content)” value is recorded as “lack ability to induce; also recorded: lack of a response”.

On to `c1ccc2c(c1)SCc1c-2[nH]c2ccccc12` [Compound 2, 6,11-dihydro-5-thia-11-aza-benzo[a]fluorene], for which the “normalized activity of alkaline phosphatase” value in assay [3] was “most effective when added on Day 1”. For the same compound, the calcium content entry in assay [4] is “most effective when added on Day 1”. Moreover, in assay [5], the “Femoral Marrow area” value is −7% and the “Femoral Total area” value is −4%.

With `C=C1/C(=C\C=C2/CCC[C@]3(C)[C@@H]([C@H](C)CCCC(C)(C)O)CC[C@@H]23)C[C@@H](O)C[C@@H]1O` [Vit D, 1,25-dihydroxy vitamin D3, reference compound], in assay [2] (setting [9]), the “BMD Lumbar Spine L2-L4” value is 0.2628 (0.023) gm mineral/cm^2 and the “BMD Lumbar Spine L5” value was found to be 0.2742 gm mineral/cm^2.

As for `CCCCCCC#Cc1ccccc1/C=C/C(=O)O` [Compound 4, trans-3-(2-oct-1-ynyl-phenyl)-acrylic acid], the IC50 in assay [1] fell in the range of 1000 to 3000 nM.

`CCCCCC(O)c1cccc(OCc2ccc3ccccc3n2)c1` (stereo not drawn) [Rev-5901]: in assay [3], the alkaline phosphatase activity result was “lack ability to induce; also recorded: lack of a response”. Further, in assay [4], the “culture calcium deposition (total calcium content)” value is on record as “lack ability to induce; also recorded: lack of a response”.

In turn, `COc1ccc(C(=O)Nc2ccc(Cl)c(Cl)c2)cc1N` [Compound 3, 3-amino-N-(3,4-dichlorophenyl)-4-methoxybenzamide] gave an IC50 in assay [1] of roughly 10 nM. Besides, the “normalized activity of alkaline phosphatase” value in assay [3] is listed as “most effective when added on Day 11”. Besides, in assay [4], the calcium content result was “most effective when added on Day 11”.

Usually IC50 stands for the midpoint of a concentration-inhibition curve. Lower therefore signals higher potency.

The values are drawn from patent US20030175680A1, “Methods of treating and preventing bone loss” (priority 2002, published 2003).
